# Measurements from US6348445B1, “Biologically active peptides with reduced toxicity in animals and a method for preparing same” (priority 1992, dated 2002).
# Where a SMILES comes first, the peptide text is derived from it. The star is where a group is joined. Octanoyl = CCCCCCCC(=O)*
# Tests used:
# Format in all cases: cell-based
# [1] = test system: C. albicans
# Text: (§1) Table I, which follows, indicates the Minimal Inhibitory Concentration (MIC) in […] of various peptides against S.aureus strain ATCC 25923(S), P. aeruginosa strain ATCC 27853(P), E. coli ATCC strain 25922(E), and C. 4albicans (CA). […] The peptides are unsubstituted at the N-terminal; substituted with an acetyl group at the N-terminal, as indicated by Ac-; substituted with an octanoyl group at the N-terminal, as indicated by Oct-; substituted with spinogosine, as indicated by Sph-; substituted with a succinyl group, as indicated by Suc-; substituted with a hexanoyl group, as indicated by Hex-; substituted with a heptanoyl group, as indicated by Hep-; substituted with a valeryl group, as indicated by Val-; substituted with a myristryl group, as indicated by Myr-; or substituted with an ibuprofyl group, as indicated by Ibu-;
# (§2) The procedure for the anti-bacterial assay is based upon the guidelines of the National Committee for Clinical Laboratory Standards, Document M7-T2, Volume 8, No. 8, 1988, which document is entirely incorporated herein by reference.
# (§3) Stock solutions of peptides, with and without the appropriate substitutions, were prepared at a concentration of 512 μg/ml in sterile deionized distilled water and stored at −70° C.
# (§4) The stock peptide solution was diluted in serial dilutions (1:2) down the wells of a microtiter plate so that the final concentrations of peptides in the wells were 0.25, 0.50, 1, 2, 4, 8, 16, 32, 64, 128 and 256 μg/ml. 1-5×10^5 CFUs/ml of either S. aureus ATCC 25923, E. coli ATCC 25922, P. aeruginosa ATCC 27853, or C. albicans, were added to the wells in full strength Mueller Hinton broth (BBL 11443) from a mid-log culture. The inoculum was standardized spectrophotometrically at 600 nm and was verified by colony counts. The plates were incubated for 16-20 hours at 37° C., and the minimal inhibitory concentration (MIC) for each peptide was determined. Minimal inhibitory concentration is defined as the lowest concentration of peptide which produces a clear well in the microtiter plate. The minimal inhibitory concentration of each of the peptides with and/or without the appropriate substitutions is given in Table I below.
# [2] = test system: P. aeruginosa strain ATCC 27853; details: ATCC 27853
# Text: as §1, §2, §3, §4
# (§5) The in vitro anti-microbial activities of the methane sulfonate derivatives were determined according to the methods described in Examples 1 and 2. The activities against ATCC strains of S. aureus, E. coli, P. aeruginosa, and C. albicans, and the hemolysis of red blood cells were compared to the parent compound (Table IV). The activities for Compound 843 (Oct-SEQ ID NO:143) methane sulfonate against clinical strains of P. aeruginosa isolated from cystic fibrosis patients were compared to the parent compound (Table V). The activity for Compound 469 (Oct-SEQ ID NO:27) methane sulfonate against P. gingivalis was compared to the parent compound (Table VI).
# [3] = test system: E. coli ATCC strain 25922; test: Minimal Inhibitory Concentration, microtiter broth dilution; details: ATCC strain 25922
# Text: as §1, §2, §3, §4, §5
Structure (SMILES),Minimal Inhibitory Concentration CA [1] [µg/mL],Minimal Inhibitory Concentration P [2] [µg/mL],Minimal Inhibitory Concentration E [3] [µg/mL]
CCCCCCCC(=O)N[C@@H](C)C(=O)N[C@@H](CCCCN)C(=O)N[C@@H](CCCCN)C(=O)N[C@@H](CC(C)C)C(=O)N[C@@H](CC(C)C)C(=O)N[C@@H](CCCCN)C(=O)N[C@@H](CCCCN)C(=O)N[C@@H](CC(C)C)C(=O)N[C@@H](CCCCN)C(=O)N[C@@H](CCCCN)C(=O)N[C@@H](CC(C)C)C(N)=O [Oct-(SEQ ID NO: 111)-NH2] (Octanoyl-AKKLLKKLKKL-NH2),32,8,32
CCCCCCCC(=O)N[C@@H](CC(C)C)C(=O)N[C@@H](CC(C)C)C(=O)N[C@@H](CCCCN)C(=O)N[C@@H](CCCCN)C(=O)N[C@@H](CC(C)C)C(=O)N[C@@H](CCCCN)C(=O)N[C@@H](CCCCN)C(=O)N[C@@H](CC(C)C)C(=O)N[C@@H](CC(C)C)C(=O)N[C@@H](CCCCN)C(=O)N[C@@H](CCCCN)C(=O)N[C@@H](CC(C)C)C(N)=O [Oct-(SEQ ID NO: 113)-NH2] (Octanoyl-LLKKLKKLLKKL-NH2),128,8,8
CCCCCCCC(=O)N[C@@H](CCCCN)C(=O)N[C@@H](Cc1ccccc1)C(=O)N[C@@H](C)C(=O)N[C@@H](CCCCN)C(=O)N[C@@H](CCCCN)C(=O)N[C@@H](Cc1ccccc1)C(=O)N[C@@H](C)C(N)=O [Oct-(SEQ ID NO: 118)-NH2] (Octanoyl-KFAKKFA-NH2),>256,>256,>256
CCCCCCCC(=O)N[C@@H](CCCCN)C(=O)N[C@H](C(=O)N[C@@H](C)C(=O)N[C@@H](CCCCN)C(=O)N[C@@H](CCCCN)C(=O)N[C@H](C(=O)N[C@@H](C)C(N)=O)[C@@H](C)CC)[C@@H](C)CC [Oct-(SEQ ID NO: 119)-NH2] (Octanoyl-KIAKKIA-NH2),>256,>256,>256
CCCCCCCC(=O)N[C@@H](CCCNC(=N)N)C(=O)N[C@@H](Cc1ccccc1)C(=O)N[C@@H](C)C(=O)N[C@@H](CCCNC(=N)N)C(=O)N[C@@H](CCCNC(=N)N)C(=O)N[C@@H](Cc1ccccc1)C(=O)N[C@@H](C)C(N)=O [Oct-(SEQ ID NO: 120)-NH2] (Octanoyl-RFARRFA-NH2),64,128,256
CCCCCCCC(=O)N[C@@H](CCCCN)C(=O)N[C@@H](Cc1ccccc1)C(=O)N[C@@H](C)C(=O)N[C@@H](CCCCN)C(=O)N[C@@H](Cc1ccccc1)C(=O)N[C@@H](C)C(=O)N[C@@H](CCCCN)C(=O)N[C@@H](CCCCN)C(=O)N[C@@H](Cc1ccccc1)C(=O)N[C@@H](C)C(N)=O [Oct-(SEQ ID NO: 121)-NH2] (Octanoyl-KFAKFAKKFA-NH2),256,256,256
CCCCCCCC(=O)N[C@@H](CCCCN)C(=O)N[C@@H](CCCCN)C(=O)N[C@@H](Cc1ccccc1)C(=O)N[C@@H](C)C(=O)N[C@@H](CCCCN)C(=O)N[C@@H](Cc1ccccc1)C(=O)N[C@@H](C)C(=O)N[C@@H](CCCCN)C(=O)N[C@@H](CCCCN)C(=O)N[C@@H](Cc1ccccc1)C(=O)N[C@@H](C)C(N)=O [Oct-(SEQ ID NO: 122)-NH2] (Octanoyl-KKFAKFAKKFA-NH2),64,32,64
CCCCCCCC(=O)N[C@@H](CCCCN)C(=O)N[C@@H](Cc1ccccc1)C(=O)N[C@@H](C)C(=O)N[C@@H](CCCCN)C(=O)N[C@@H](CCCCN)C(=O)N[C@@H](Cc1ccccc1)C(=O)N[C@@H](C)C(=O)N[C@@H](CCCCN)C(=O)N[C@@H](Cc1ccccc1)C(=O)N[C@@H](C)C(=O)N[C@@H](CCCCN)C(=O)N[C@@H](CCCCN)C(=O)N[C@@H](Cc1ccccc1)C(=O)N[C@@H](C)C(N)=O [Oct-(SEQ ID NO: 125)-NH2] (Octanoyl-KFAKKFAKFAKKFA-NH2),64,8,16
CCCCCCCC(=O)N[C@@H](CCCNC(=N)N)C(=O)N[C@@H](Cc1ccccc1)C(=O)N[C@@H](C)C(=O)N[C@@H](CCCNC(=N)N)C(=O)N[C@@H](CCCNC(=N)N)C(=O)N[C@@H](Cc1ccccc1)C(=O)N[C@@H](C)C(=O)N[C@@H](CCCNC(=N)N)C(=O)N[C@@H](Cc1ccccc1)C(=O)N[C@@H](C)C(=O)N[C@@H](CCCNC(=N)N)C(=O)N[C@@H](CCCNC(=N)N)C(=O)N[C@@H](Cc1ccccc1)C(=O)N[C@@H](C)C(N)=O [Oct-(SEQ ID NO: 126)-NH2] (Octanoyl-RFARRFARFARRFA-NH2),64,8,8
CCCCCCCC(=O)N[C@@H](CCC(=O)O)C(=O)N[C@@H](CCCCN)C(=O)N[C@@H](CCCCN)C(=O)N[C@@H](CC(C)C)C(=O)N[C@@H](CC(C)C)C(=O)N[C@@H](CCCCN)C(=O)N[C@@H](CCCCN)C(=O)N[C@@H](CC(C)C)C(=O)N[C@@H](CCCCN)C(=O)N[C@@H](CCCCN)C(=O)N[C@@H](CC(C)C)C(N)=O [Oct-(SEQ ID NO: 127)-NH2] (Octanoyl-EKKLLKKLKKL-NH2),128,32,32
CCCCCCCC(=O)N[C@@H](CCCCN)C(=O)N[C@@H](CCCCN)C(=O)N[C@@H](CCCCN)C(=O)N[C@@H](CC(C)C)C(=O)N[C@@H](CC(C)C)C(=O)N[C@@H](CCCCN)C(=O)N[C@@H](CCCCN)C(=O)N[C@@H](CC(C)C)C(=O)N[C@@H](CCCCN)C(=O)N[C@@H](CCCCN)C(=O)N[C@@H](CC(C)C)C(N)=O [Oct-(SEQ ID NO: 128)-NH2] (Octanoyl-KKKLLKKLKKL-NH2),32,64,32
CCCCCCCC(=O)N[C@@H](CCCCN)C(=O)N[C@@H](CC(C)C)C(=O)N[C@@H](CCCCN)C(=O)N[C@@H](CCCCN)C(=O)N[C@@H](CCCCN)C(=O)N[C@@H](Cc1ccccc1)C(=O)N[C@@H](CC(C)C)C(=O)N[C@@H](CCCCN)C(=O)N[C@@H](CCCCN)C(=O)N[C@@H](CC(C)C)C(N)=O [Oct-(SEQ ID NO: 129)-NH2] (Octanoyl-KLKKKFLKKL-NH2),128,16,32
CCCCCCCC(=O)N[C@@H](CC(C)C)C(=O)N[C@@H](CCCCN)C(=O)N[C@@H](CCCCN)C(=O)N[C@@H](CC(C)C)C(=O)N[C@@H](CC(C)C)C(=O)N[C@@H](CCC(=O)O)C(=O)N[C@@H](CCCCN)C(=O)N[C@@H](CC(C)C)C(=O)N[C@@H](CCCCN)C(=O)N[C@@H](CCCCN)C(=O)N[C@@H](CC(C)C)C(N)=O [Oct-(SEQ ID NO: 130)-NH2] (Octanoyl-LKKLLEKLKKL-NH2),8,4,4
CCCCCCCC(=O)N[C@@H](CC(C)C)C(=O)N[C@@H](CCCCN)C(=O)N[C@@H](CCCCN)C(=O)N[C@@H](CC(C)C)C(=O)N[C@@H](CC(C)C)C(=O)N[C@@H](CCCCN)C(=O)N[C@@H](CCC(=O)O)C(=O)N[C@@H](CC(C)C)C(=O)N[C@@H](CCCCN)C(=O)N[C@@H](CCCCN)C(=O)N[C@@H](CC(C)C)C(N)=O [Oct-(SEQ ID NO: 131)-NH2] (Octanoyl-LKKLLKELKKL-NH2),64,8,4
CCCCCCCC(=O)N[C@@H](CC(C)C)C(=O)N[C@@H](CCCCN)C(=O)N[C@@H](CCCCN)C(=O)N[C@@H](CC(C)C)C(=O)N[C@@H](CC(C)C)C(=O)N[C@@H](CCCCN)C(=O)N[C@@H](CCCCN)C(=O)N[C@@H](CC(C)C)C(=O)N[C@@H](CCCCN)C(=O)N[C@@H](CCCCN)C(=O)N[C@@H](CC(C)C)C(=O)N[C@@H](CS)C(N)=O [Oct-(SEQ ID NO: 133)-NH2] (Octanoyl-LKKLLKKLKKLC-NH2),128,32,32
